Data on 2 substances can be found in patent publication US11548919B1, “SARS-CoV-2 polypeptide inhibitors directed against the Env TM domain and methods of treatment using said inhibitors” (priority 2022, dated 2023).

“Also recorded” adds a separate entry of the source. Square brackets hold non-standard residues; d marks the D form. Ends that are not written are not given here. Nap = naphthyl group, N-terminal cap; Aib = CC(C)(N)C(=O)O

The assay relates to SARS-CoV-2 Omicron variant pseudovirus. The class given is cell-based. To be noted: for fluorescence of peptide groups versus no-peptide control: N=3.

Take “NapFFTLUFLTUTEKKKK (Nap-FFTL[Aib]FLT[Aib]TEKKKK)”: the “inhibition of SARS-CoV-2 Omicron pseudovirus infection / replication in mammalian cells” value is on record as “effectively inhibited viral replication; also recorded: significantly inhibited” and the “fluorescence of peptide groups versus no-peptide control” value was “statistically (p<0.01) less than”.
On to “NapFFMLUFLMUMEKKKK (Nap-FFML[Aib]FLM[Aib]MEKKKK)”, for which the “inhibition of SARS-CoV-2 Omicron pseudovirus infection / replication in mammalian cells” value is reported as “effectively inhibited viral replication; also recorded: significantly inhibited” and the “fluorescence of peptide groups versus no-peptide control” value is “statistically (p<0.01) less than”.
